Measurements: patent US20180072997A1, “INHIBITORS OF HUMAN IMMUNODEFICIENCY VIRUS REPLICATION” (ViiV HEATHCARE UK (NO.5) LIMITED, priority 2015, published 2018)

Key:
[1] = test system: recombinant NL4-3 virus (Renilla luciferase in nef) in MT-2 cells; test: whole plant or invertebrate; format: cell-based, HIV; conditions: MT-2 cells infected for 4-5 days with recombinant NL4-3 Renilla luciferase virus; luciferase activity
Method in brief: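 MT-2 cells infected for 4-5 days with NL4-3 reporter virus (Renilla luciferase replacing part of nef, produced by transfection of 293T cells) in the presence of serial compound dilutions. Antiviral activity quantified by luciferase activity read with a live-cell substrate.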

[2] = test system: uninfected MT2 cells; test: Compound cytotoxicity, XTT-based colorimetric assay; format: cell-based; conditions: day 4, XTT
Method in brief: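 Run under the antiviral-assay protocol but without virus. Viability was read on day 4 and CC50 values were derived from the readout.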

## C=CCCN(C(=O)[C@H](Cc1cc(F)cc(F)c1)NC(=O)NS(=O)(=O)N[C@@H](Cc1cc(F)cc(F)c1)C(=O)N(CCC=C)c1ccc2scnc2c1)c1ccc2scnc2c1 (single isomer, unassigned) [Example 142]
[1]
  EC50: 0.82 µM
[2]
  CC50: 17.4 µM
